# Reference: article PMC9428149, “Tackling recalcitrant Pseudomonas aeruginosa infections in critical illness via anti-virulence monotherapy” (Nature Communications, 2022)
# “And” between values parts separate entries of the source, which are not always exact repeats. Equal values may be shown once. “Also recorded” adds a separate entry of the source. Read-outs that look alike come from different tables or passages of the source.
# Columns and labels:
# Caco-2 cells = experiment: MTT cytotoxicity, Caco-2; type: cell-based, human; conditions: for Cell viability (MTT) relative to Vehicle: Caco-2, replicates
# Protocol: (§1) For the determination of cytotoxicity, cell viability was determined using the MTT (3-[4, 5-dimethyl-2-thiazolyl]−2, 5-diphenyl-2H-tetrazolium bromide) assay in the presence and absence of compound (D88). […] The cells were then treated with either vehicle or different concentrations of D88 (10, 20, 30, 40, and 50 µM) for 24 h at 37 °C and 5% CO2. After 24 h, the cells were washed three times with PBS and were incubated in 200 μL PBS containing 200 μg mL^−1 MTT (Sigma-Aldrich) in a 96-well culture plate for 2 h at 37 °C and 5% CO2. Following incubation, the supernatant was discarded, and the cells were lysed in 95% isopropanol and 5% formic acid.
# Hep G2 cells = experiment: MTT cytotoxicity, Hep G2; type: cell-based, human; conditions: for Cell viability (MTT) relative to Vehicle: Hep G2, replicates
# Protocol: as §1
# PA14 burn-site infection [1] = experiment: Bacterial dissemination and load (CFU) in burn-site infection model; type: in vivo, mouse
# IL-6 = experiment: Ileal IL-6 ELISA; type: in vivo, mouse; conditions: burn + PA14 + D88, 22 h
# Protocol: (§2) For the group supplemented with our MvfR-inhibiting compound (D88), mice received five subcutaneous injections (at the nape of the animals) at 1, 4, 8, 12, and 18 h post-BI, at a dose of 24 mg kg^−1 body weight. D88 was prepared in a 40% Captisol vehicle. Control groups received equivalent doses of 40% Captisol vehicle.
# Distal ileal TNF-α and IL-6 were quantified using the mouse TNF-α enzyme-linked immunosorbent assay [ELISA] Ready-SET-Go kit (eBioscience; San Diego, CA, USA) and the Mouse IL-6 DuoSet ELISA (R&D Systems) respectively, as per the manufacturer’s instructions.
# PA14 burn-site infection [2] = experiment: In vivo intestinal permeability (FITC-dextran) in burn-site infection model; parameters: species or system mouse
# [3] = biological target: MvfR binding to the pqsA promoter (Pseudomonas aeruginosa, UniProt Q9I4X0); type: cell-based; conditions: for MvfR binding to the pqsA promoter (ChIP-qPCR): D88 +, Figure 5c, replicates
# [4] = tested on: MvfR-regulated small molecules at the site of infection; experiment: Production of HHQ, PQS, HQNO, 2-AA and DHQ in vivo; parameters: species or system mouse
# Protocol: as §2
# To measure the production of HHQ, PQS, HQNO, 2-AA, and DHQ in vivo, underlying muscle from the site of infection was collected at 12 h and 22 h post-infection, and the small molecules were extracted by homogenizing them immediately in 1 mL sterile PBS as above. A 500 μL of sample was mixed with an equal volume of methanol containing 10 ppm of HHQ-D4 and 20 ppm of PQS-D4, spun down for 5 min, and 700 μL of supernatant were put in glass vials. Liquid chromatography-mass spectrophotometry ([…]) analysis was performed as described above and in[66].
# RAW 264.7 cells = experiment: MTT cytotoxicity, RAW 264.7; type: cell-based, mouse; conditions: for Cell viability (MTT) relative to Vehicle: RAW 264.7, replicates
# Protocol: as §1
# [5] = DMPK of D88 in mice (plasma); type: in vivo, mouse; conditions: for half-life: read-out: half-life (T ½) (converted)
# Protocol: Experiments were conducted by Aptuit (Verona) S.rl, an Evotec Company in Italy. Six weeks old male CD-1 mice were obtained from Charles River Laboratories, Italy. Mice were maintained on a 12 h light cycle with ad libitum access to rodent feed and water.
# Healthy animals received IV 1.0 mg kg^−1 or SC administration of the 10.2 mg kg^−1 in homogeneous suspension in 0.5 % HPMC in water at the volume of 1.7 mL kg^−1. Following administration, blood samples were collected under deep isoflurane anesthesia from the cava vein of each mouse into tubes with K3EDTA, thoroughly but gently mixed, and placed on wet ice. Within 0.5 h of collection, blood was centrifuged (2500 g for 10 min at 4 °C) and within 0.5 h, aliquots of plasma were transferred into appropriately labeled sample tubes. A first 20 µL aliquot were mixed with 80 µL of Hepes 0.1 N. A second 5 µL aliquot of plasma was added to a well plate for urea quantification without dilution. Plasma samples were processed using a method based on protein precipitation with acetonitrile followed by HPLC/MS-MS analysis with an optimized analytical method.
# [6] = D88 Treated 12h, site of infection, single mice, Figure 6d
# [7] = D88 Treated 22h, site of infection, single mice, Figure 6d
# [8] = male, CD-1, mouse, 1 mg/kg IV, plasma
# [9] = male, CD-1, mouse, 10 mg/kg SC, plasma
# Chain of MvfR binding to the pqsA promoter (Q9I4X0 whole entry, looked up): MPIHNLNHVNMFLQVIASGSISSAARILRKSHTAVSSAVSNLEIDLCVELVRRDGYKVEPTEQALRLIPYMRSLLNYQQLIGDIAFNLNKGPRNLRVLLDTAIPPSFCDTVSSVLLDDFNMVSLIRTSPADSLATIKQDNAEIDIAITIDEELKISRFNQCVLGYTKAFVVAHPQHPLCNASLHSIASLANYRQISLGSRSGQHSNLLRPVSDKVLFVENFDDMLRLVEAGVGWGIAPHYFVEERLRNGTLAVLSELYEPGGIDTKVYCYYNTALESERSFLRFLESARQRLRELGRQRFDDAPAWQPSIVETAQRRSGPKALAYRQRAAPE
smiles,measurement,setting,value
N#Cc1ccc(NC(=O)C(F)C(=O)Nc2ccc(Oc3ccccc3)cc2)cc1 (stereo not drawn) [D88],cell viability,"Caco-2 cells; Caco-2, 10-50 µM, 24 h",None of the used compound concentrations exerted any cytotoxic effect; also recorded: no significant changes in cell viability
same,Cell viability (MTT) relative to Vehicle,Caco-2 cells; 10 μM,100.58 and 104.90 and 98.04 and 98.93 and 106.77 and 103.03
same,Cell viability (MTT) relative to Vehicle,Caco-2 cells; 20 μM,88.76 and 107.49 and 114.33 and 95.92 and 103.96 and 102.97
same,Cell viability (MTT) relative to Vehicle,Caco-2 cells; 30 μM,90.12 and 104.03 and 109.17 and 85.43 and 91.84 and 104.53
same,Cell viability (MTT) relative to Vehicle,Caco-2 cells; 40 μM,102.40 and 93.65 and 104.99 and 92.78 and 93.27 and 104.68
same,Cell viability (MTT) relative to Vehicle,Caco-2 cells; 50 μM,105.69 and 94.78 and 111.93 and 95.33 and 96.54 and 98.13
same,cell viability,"Hep G2 cells; Hep G2, 10-50 µM, 24 h",None of the used compound concentrations exerted any cytotoxic effect; also recorded: no significant changes in cell viability
same,Cell viability (MTT) relative to Vehicle,Hep G2 cells; 10 μM,91.32 and 107.98 and 99.70 and 117.35 and 109.09 and 100.19
same,Cell viability (MTT) relative to Vehicle,Hep G2 cells; 20 μM,95.30 and 117.21 and 108.45 and 112.28 and 97.33 and 109.75
same,Cell viability (MTT) relative to Vehicle,Hep G2 cells; 30 μM,92.58 and 115.65 and 108.60 and 112.37 and 92.39 and 103.33
same,Cell viability (MTT) relative to Vehicle,Hep G2 cells; 40 μM,107.42 and 114.93 and 105.81 and 114.05 and 107.35 and 99.51
same,Cell viability (MTT) relative to Vehicle,Hep G2 cells; 50 μM,91.19 and 110.82 and 100.96 and 118.91
same,bacterial dissemination to the intestinal tissues (ileum and colon),"PA14 burn-site infection [1]; burn + PA14, D88, 22 h",significantly reduced
same,bacterial load at the inoculation site,"PA14 burn-site infection [1]; burn + infection, D88, 22 h",not affected
same,bacterial load at the site of infection (CFUs),PA14 burn-site infection [1]; infected and D88 treated animals,~1 × 10^8
same,ileal IL-6 level,IL-6,marked decrease
same,mean FITC-dextran in serum,"PA14 burn-site infection [2]; burn + PA14 infection, D88 24 mg kg^−1 SC x5, 22 h",2759 ng/mL
same,mean FITC-dextran in serum,"PA14 burn-site infection [2]; burn alone without infection, D88-treated, 22 h",850 ng/mL
same,intestinal permeability status,PA14 burn-site infection [2]; mvfR mutant-infected mice treated with D88 vs no treatment or vehicle,no difference in the intestinal permeability status
same,reduction of MvfR binding to the pqs operon promoter,"[3]; 50 µM D88, vs control",~ 80%
same,PQS-mediated increase in MvfR binding,[3]; D88 50 µM + PQS 38 µM,significantly decreased
same,MvfR binding to the pqsA promoter (ChIP-qPCR),[3]; PQS +,4.271 and 2.782 and 2.485
same,MvfR binding to the pqsA promoter (ChIP-qPCR),[3]; PQS −,1.532 and 0.7796 and 1.309
same,"levels of HHQ, PQS, HQNO, 2-AA and DHQ at the site of infection",[4]; 12 h post-infection,strong inhibitory efficacy
same,"levels of HHQ, PQS, HQNO, 2-AA and DHQ at the site of infection",[4]; 22 h post-infection,complete abolishment
same,DHQ,[4]; [6],0.0000
same,HQNO,[4]; [6],0.0000
same,2-AA,[4]; [7],0.0000
same,DHQ,[4]; [7],0.0000
same,cell viability,"RAW 264.7 cells; RAW 264.7, 10-50 µM, 24 h",None of the used compound concentrations exerted any cytotoxic effect; also recorded: no significant changes in cell viability
same,Cell viability (MTT) relative to Vehicle,RAW 264.7 cells; 10 μM,106.22 and 99.08 and 96.63 and 98.82 and 101.11 and 88.19
same,Cell viability (MTT) relative to Vehicle,RAW 264.7 cells; 20 μM,109.67 and 80.39 and 97.97 and 112.02 and 105.97 and 95.04
same,Cell viability (MTT) relative to Vehicle,RAW 264.7 cells; 30 μM,93.49 and 78.32 and 83.19 and 78.26 and 102.67 and 94.83
same,Cell viability (MTT) relative to Vehicle,RAW 264.7 cells; 40 μM,110.52 and 98.03 and 98.54 and 91.97 and 90.51 and 93.01
same,Cell viability (MTT) relative to Vehicle,RAW 264.7 cells; 50 μM,100.26 and 92.62 and 78.32 and 79.67 and 99.66 and 96.62
same,Clast,"[5]; 1 mg/kg IV, plasma",14.2 ng/mL
same,Clast,"[5]; 10 mg/kg SC, plasma",66.6 ng/mL
same,Concentration,"[5]; IV Injection 1mg/kg, Time 0.08 h, individual animals, 1 mg/kg",648 ng/mL and 1150 ng/mL and 1460 ng/mL
same,Concentration,"[5]; IV Injection 1mg/kg, Time 0.33 h, individual animals, 1 mg/kg",210 ng/mL and 298 ng/mL and 486 ng/mL
same,Concentration,"[5]; IV Injection 1mg/kg, Time 0.67 h, individual animals, 1 mg/kg",77.1 ng/mL and 131 ng/mL
same,Concentration,"[5]; IV Injection 1mg/kg, Time 1 h, individual animals, 1 mg/kg",10.9 ng/mL and 25.8 ng/mL and 57.4 ng/mL
same,Concentration,"[5]; SC Injection 10mg/kg, Time 0.08 h, individual animals, 10 mg/kg",491 ng/mL and 600 ng/mL and 954 ng/mL and 1250 ng/mL
same,Concentration,"[5]; SC Injection 10mg/kg, Time 0.33 h, individual animals, 10 mg/kg",712 ng/mL and 1020 ng/mL and 1060 ng/mL and 1590 ng/mL
same,Concentration,"[5]; SC Injection 10mg/kg, Time 0.67 h, individual animals, 10 mg/kg",581 ng/mL and 875 ng/mL and 940 ng/mL and 1190 ng/mL
same,Concentration,"[5]; SC Injection 10mg/kg, Time 1 h, individual animals, 10 mg/kg",513 ng/mL and 854 ng/mL and 838 ng/mL and 1070 ng/mL
same,Concentration,"[5]; SC Injection 10mg/kg, Time 2 h, individual animals, 10 mg/kg",746 ng/mL and 683 ng/mL and 744 ng/mL
same,Concentration,"[5]; SC Injection 10mg/kg, Time 3.8 h, individual animals, 10 mg/kg",90.5 ng/mL and 323 ng/mL and 480 ng/mL and 304 ng/mL
same,Concentration,"[5]; SC Injection 10mg/kg, Time 6 h, individual animals, 10 mg/kg",21.9 ng/mL and 63.8 ng/mL and 101 ng/mL and 79.7 ng/mL
same,concentration at 0.67 h,"[5]; male, CD-1, mouse, plasma, iv, 1 mg/kg, IV Injection 1mg/kg, Time 0.67 h, individual animals",76.4 ng/mL
same,concentration at 2 h,"[5]; male, CD-1, mouse, plasma, iv, 1 mg/kg, IV Injection 1mg/kg, Time 2 h, individual animals",5.9 ng/mL
same,concentration at 2 h,"[5]; male, CD-1, mouse, plasma, sc, 10 mg/kg, SC Injection 10mg/kg, Time 2 h, individual animals",443 ng/mL
same,Cmax,[5]; [8],1090 ng/mL
same,Tmax,[5]; [8],4.8 min
same,half-life,[5]; [8],16.2 min
same,Cmax,[5]; [9],1100 ng/mL
same,Tmax,[5]; [9],19.8 min
same,half-life,[5]; [9],75 min
